Test results reported in article PMC11339798, “Dual inhibitors of Pseudomonas aeruginosa virulence factors LecA and LasB” (Chemical Science, 2024).

Legend:
LasB = target: T1, LasB (Pseudomonas aeruginosa, UniProt Q02RJ6); test: FRET-based in vitro LasB inhibition (proteolysis) assay; format: biochemical, P. aeruginosa PA14
T1 construct: P. aeruginosa PA14 culture supernatant; made in house; host or cells: native secreted enzyme purified from P. aeruginosa PA14 culture supernatant (not recombinant)
T1 sequence (Q02RJ6 198-498): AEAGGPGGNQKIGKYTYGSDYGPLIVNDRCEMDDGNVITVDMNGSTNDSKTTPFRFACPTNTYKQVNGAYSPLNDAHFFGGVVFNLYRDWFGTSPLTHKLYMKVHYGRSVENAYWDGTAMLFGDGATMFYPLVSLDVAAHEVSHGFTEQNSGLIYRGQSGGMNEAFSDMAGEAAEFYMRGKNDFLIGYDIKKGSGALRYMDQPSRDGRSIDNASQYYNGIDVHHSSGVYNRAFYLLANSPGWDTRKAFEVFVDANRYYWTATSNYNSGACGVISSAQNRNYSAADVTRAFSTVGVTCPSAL
Procedure: The LasB activity of the thiol derivatives 11, 12, 17, 18, 24 and 25 was tested using a functional FRET-based in vitro proteolysis assay (Fig. 4A). […]
Expression and purification of LasB and LecA
LecA was expressed recombinantly using E. coli pET25-pail, whereas LasB was isolated from P. aeruginosa PA14 culture supernatant as described previously. 1,2 […]
In vitro inhibition assay for LasB
The in vitro inhibition assay was performed as described previously,2 using purified LasB (final concentration 0.3 nM), the fluorogenic substrate 2-aminobenzoyl-Ala-Gly-Leu-Ala-4-nitrobenzylamide (purchased from Peptides International (Louisville, KY, USA) or Vivitide, LLC (Gardner, MA, USA), final concentration 150 µM)) in assay buffer (50 mM Tris, pH 7.2, 2.5 mM CaCl2, 0.075% Pluronic F-127, 5% DMSO). Fluorescence was measured using a CLARIOstar plate reader (BMG Labtech, Ortenberg, Germany). IC50 values were calculated using GraphPad Prism 8 (GraphPad Software, San Diego, CA, USA) from at least three independent experiments performed in duplicate.

[1] = system: Pseudomonas aeruginosa PA14; test: Antibacterial activity (MIC, ESCMID guidelines); format: cell-based; conditions: for MIC: Pseudomonas aeruginosa, PA14; for antimicrobial activity (bacterial viability): up to 100 μM
Procedure: (§1) Given that the novel inhibitors contain a free thiol as a strong zinc binding group, we analyzed the selectivity of the diastereomeric mixtures 11 and 12 on six human matrix metalloproteases (MMPs) as putative off-targets.[53] […] Furthermore, we tested the impact of 11 and 12 on bacterial viability to ensure that these compounds are antivirulence agents and not antibiotics. […]
Selectivity and toxicity assays […]
Antimicrobial activity against P. aeruginosa PA14 was tested using ESCMID guidelines and […]

[2] = Disulfide formation assay: thiol stability in P. aeruginosa culture supernatant (LC-MS); format: in vitro ADME; conditions: Pseudomonas aeruginosa, pH 7.4, P. aeruginosa culture supernatant, 37 °C, read-out: thiol half-life (conversion into disulfide)
Text: Disulfide formation in the presence of P. aeruginosa culture supernatant was studied for the two inhibitors 11 and 12 and analyzed by liquid chromatography-mass spectrometry (LC-MS) (Fig. 3B). Disulfides 26 and 27 were synthesized via oxidation with H2O2 in DMSO/H2O and used as reference compounds for the stability assay (Fig. 3A). […] The separation of those two peaks of the benzylated derivative 26 using preparative HPLC gave 26a and 26b (m/z of 901.28, Fig. S1 ^†).
In the presence of the bacterial culture supernatant of P. aeruginosa, the conversion of thiols 11 and 12 into the corresponding disulfides 26 and 27 was monitored at 37 °C and thiol half-lives of 48 min for 11 and 70 min for 12 were determined (Fig. 3B).
Disulfide formation assay
The stability of two thiols 11 and 12 and their ability to form the corresponding disulfides was analyzed by HPLC-MS. […] Samples were drawn over 4.5 hours and analyzed by LC-MS using a RP-18 column 100/2 Nucleoshell RP18plus, 2.7 μm from Macherey-Nagel, Germany (H2O/MeCN + 0.1% formic acid, 15 – 55% MeCN, retention time (t R) 5.8 min (11 or 12), 6.1 min and 6.3 min (disulfide products 26 or 27) on a Thermo Dionex Ultimate 3000 HPLC coupled to a Bruker amaZon SL mass spectrometer, with UV detection at 254 nm). Thiol half-lives were determined by analysis of the obtained graphs and values of 80 min for 11 and 46 min for 12 were obtained […]

MMP-14 = target: T2, MMP-14 (Homo sapiens, UniProt P50281); test: MMP selectivity assay (SensoLyte 520 Generic MMP Activity Kit); format: biochemical; conditions: read-out: Percent inhibition at 100 µM, MMP-14, 100 µM
T2 construct: purchased AnaSpec (Fremont, CA, USA)
Text: as §1
(§2) Selectivity and toxicity assays
(§3) Human MMPs -1, -2, -3, -7, -8 and -14 along with the SensoLyte 520 Generic MMP Activity
(§4) Kit*Fluorimetric* were purchased from AnaSpec (Fremont, CA, USA). The inhibition assay

MMP-1 = target: T3, MMP-1 (Homo sapiens, UniProt P03956); test: as above; format: biochemical; conditions: read-out: Percent inhibition at 100 µM, MMP-1, 100 µM
T3 construct: purchased AnaSpec (Fremont, CA, USA)
T3 sequence (P03956 100-469): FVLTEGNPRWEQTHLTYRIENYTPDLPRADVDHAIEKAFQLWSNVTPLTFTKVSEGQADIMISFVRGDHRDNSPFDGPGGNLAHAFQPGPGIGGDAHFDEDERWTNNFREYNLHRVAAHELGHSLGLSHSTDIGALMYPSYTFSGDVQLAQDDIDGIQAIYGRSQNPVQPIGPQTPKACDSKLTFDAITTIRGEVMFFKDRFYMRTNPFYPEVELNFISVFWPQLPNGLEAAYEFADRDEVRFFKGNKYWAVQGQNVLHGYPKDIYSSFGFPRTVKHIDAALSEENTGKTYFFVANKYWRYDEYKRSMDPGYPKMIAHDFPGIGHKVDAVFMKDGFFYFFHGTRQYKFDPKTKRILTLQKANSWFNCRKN
Text: as §1, §2, §3, §4

MMP-8 = target: T4, MMP-8 (Homo sapiens, UniProt P22894); test: as above; format: biochemical; conditions: read-out: Percent inhibition at 100 µM, MMP-8, 100 µM
T4 construct: purchased AnaSpec (Fremont, CA, USA)
T4 sequence (P22894 101-467): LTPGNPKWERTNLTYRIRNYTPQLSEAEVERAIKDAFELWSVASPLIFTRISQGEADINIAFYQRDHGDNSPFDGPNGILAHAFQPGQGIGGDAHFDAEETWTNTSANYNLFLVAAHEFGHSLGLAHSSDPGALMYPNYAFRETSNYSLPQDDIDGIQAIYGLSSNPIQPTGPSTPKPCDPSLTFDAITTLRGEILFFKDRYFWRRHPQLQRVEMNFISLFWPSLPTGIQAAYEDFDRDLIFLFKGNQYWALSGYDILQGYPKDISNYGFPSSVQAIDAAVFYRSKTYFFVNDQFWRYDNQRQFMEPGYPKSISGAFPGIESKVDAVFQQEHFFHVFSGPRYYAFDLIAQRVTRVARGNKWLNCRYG
Text: as §1, §2, §3, §4

MMP-7 = target: T5, MMP-7 (Homo sapiens, UniProt P09237); test: as above; format: biochemical; conditions: read-out: Percent inhibition at 100 µM, MMP-7, 100 µM
T5 construct: purchased AnaSpec (Fremont, CA, USA)
T5 sequence (P09237 95-267): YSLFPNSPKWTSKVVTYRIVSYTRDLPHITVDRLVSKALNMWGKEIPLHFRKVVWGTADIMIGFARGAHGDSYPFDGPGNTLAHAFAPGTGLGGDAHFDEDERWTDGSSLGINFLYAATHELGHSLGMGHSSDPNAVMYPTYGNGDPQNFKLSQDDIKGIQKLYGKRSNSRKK
Text: as §1, §2, §3, §4

MMP-2 = target: T6, MMP-2 (Homo sapiens, UniProt P08253); test: as above; format: biochemical; conditions: read-out: Percent inhibition at 100 µM, MMP-2, 100 µM
T6 construct: purchased AnaSpec (Fremont, CA, USA)
T6 sequence (P08253 110-660): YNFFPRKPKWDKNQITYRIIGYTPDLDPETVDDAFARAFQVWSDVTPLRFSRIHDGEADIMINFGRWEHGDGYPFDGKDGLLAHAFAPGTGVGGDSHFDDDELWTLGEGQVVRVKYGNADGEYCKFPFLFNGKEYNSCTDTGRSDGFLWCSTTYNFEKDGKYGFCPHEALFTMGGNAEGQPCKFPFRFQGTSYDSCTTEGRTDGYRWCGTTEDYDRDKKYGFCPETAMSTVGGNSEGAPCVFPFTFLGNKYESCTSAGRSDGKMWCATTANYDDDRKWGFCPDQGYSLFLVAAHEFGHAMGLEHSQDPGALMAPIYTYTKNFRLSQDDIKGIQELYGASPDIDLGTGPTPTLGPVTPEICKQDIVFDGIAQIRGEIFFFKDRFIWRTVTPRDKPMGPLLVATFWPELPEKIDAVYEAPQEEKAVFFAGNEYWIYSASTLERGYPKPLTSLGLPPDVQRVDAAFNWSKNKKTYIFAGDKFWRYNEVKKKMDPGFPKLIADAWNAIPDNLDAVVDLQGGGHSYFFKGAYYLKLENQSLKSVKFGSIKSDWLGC
Text: as §1, §2, §3, §4

MMP-3 = target: T7, MMP-3 (Homo sapiens, UniProt P08254); test: as above; format: biochemical; conditions: read-out: Percent inhibition at 100 µM, MMP-3, 100 µM
T7 construct: purchased AnaSpec (Fremont, CA, USA)
T7 sequence (P08254 100-477): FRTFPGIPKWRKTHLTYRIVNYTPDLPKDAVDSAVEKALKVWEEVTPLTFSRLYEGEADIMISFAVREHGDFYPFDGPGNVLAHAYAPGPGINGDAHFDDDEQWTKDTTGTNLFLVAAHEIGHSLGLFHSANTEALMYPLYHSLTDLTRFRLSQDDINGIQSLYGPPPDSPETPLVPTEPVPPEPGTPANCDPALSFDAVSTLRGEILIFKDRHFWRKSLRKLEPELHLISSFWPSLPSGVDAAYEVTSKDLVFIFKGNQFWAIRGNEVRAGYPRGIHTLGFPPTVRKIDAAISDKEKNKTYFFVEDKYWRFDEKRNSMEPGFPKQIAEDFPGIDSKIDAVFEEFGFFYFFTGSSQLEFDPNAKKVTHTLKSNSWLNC
Text: as §1, §2, §3, §4

Row | Structure (SMILES) | IC50 (LasB) [nM] | MIC [1] [µM] | antimicrobial activity (bacterial viability) [1] | half-life at 1.25 mM [2] [min] | inhibition at 100 µM (MMP-14) [%] | inhibition at 100 µM (MMP-1) [%] | inhibition at 100 µM (MMP-8) [%] | inhibition at 100 µM (MMP-7) [%] | inhibition at 100 µM (MMP-2) [%] | inhibition at 100 µM (MMP-3) [%]
1 | CC(C)CC(S)C(=O)Nc1ccc(S[C@@H]2O[C@H](CO)[C@H](O)[C@H](O)[C@H]2O)cc1 (some centres unmarked) [Compound 12] | 800 | > 100 | No antimicrobial activity was detected | 46 | 19 ± 5 | < 10 | < 10 | < 10 | 19 ± 3 | < 10
2 | O=C(Nc1ccc(S[C@@H]2O[C@H](CO)[C@H](O)[C@H](O)[C@H]2O)cc1)C(S)Cc1ccccc1 (some centres unmarked) [Compound 11] | 300 | > 100 | No antimicrobial activity was detected | 80 | < 10 | 10 ± 5 | < 10 | < 10 | < 10 | < 10
